assay: Ca2+ Flux Assay: GÎ±15 HEK293 cells stably expressing rat mGlu2 were plated in black-walled, clear-bottomed, poly-D-lysine coated 384-well plates in 20 Î¼L of assay medium (DMEM containing 10% dialyzed FBS, 20 mM HEPES, and 1 mM sodium pyruvate) at a density of 12K cells/well. The cells were grown overnight at 37° C. in the presence of 5% CO2. The next day, medium was removed and the cells incubated with 20 Î¼L of 2.3 Î¼M Fluo-4, AM prepared as a 2.3 mM stock in DMSO and mixed in a 1:1 ratio with 10% (w/v) pluronic acid F-127 and diluted in assay buffer (Hank's balanced salt solution, 20 mM HEPES, and 2.5 mM probenecid) for 45 minutes at 37° C. Dye was removed, 20 Î¼L of assay buffer was added, and the plate was incubated for 5 minutes at room temperature.

Row | IC50 | SMILES
1 | > 10 µM | Cn1cc(-c2cc(C(N)=O)ncc2OCc2ccc(C(F)(F)F)nc2)cn1
2 | 2.01 µM | NC(=O)c1cc(-c2ccc(F)cc2)c(OCCOc2ccccc2F)cn1
3 | > 10 µM | C[C@@H]1CN(CCOc2cnc(C(N)=O)cc2-c2ccc(F)cc2)C[C@H](C)O1
4 | > 10 µM | C[C@@H]1CN(CCCOc2cnc(C(N)=O)cc2-c2ccc(F)cc2)C[C@H](C)O1
5 | > 30 µM | C[C@@H]1CN(CCOc2cnc(C#N)cc2-c2ccc(F)cc2)C[C@H](C)O1
